Results from PMC9967275, “Screening the Pathogen Box to Discover and Characterize New Cruzain and TbrCatL Inhibitors” (Pathogens, 2023).

Experiments:
TbrCatL = biological target: T1, TbrCatL (Trypanosoma brucei rhodesiense, UniProt Q95PM0); test: TbrCatL enzymatic inhibition assay (cleavage of fluorogenic substrate Z-FR-AMC); type: biochemical; settings: for TbrCatL 0’ Inhibition / TbrCatL 10’ Inhibition: sheet "Screening results"
T1 construct: Conor Caffrey (University of California San Diego)
T1 sequence (Q95PM0 entry or part of it): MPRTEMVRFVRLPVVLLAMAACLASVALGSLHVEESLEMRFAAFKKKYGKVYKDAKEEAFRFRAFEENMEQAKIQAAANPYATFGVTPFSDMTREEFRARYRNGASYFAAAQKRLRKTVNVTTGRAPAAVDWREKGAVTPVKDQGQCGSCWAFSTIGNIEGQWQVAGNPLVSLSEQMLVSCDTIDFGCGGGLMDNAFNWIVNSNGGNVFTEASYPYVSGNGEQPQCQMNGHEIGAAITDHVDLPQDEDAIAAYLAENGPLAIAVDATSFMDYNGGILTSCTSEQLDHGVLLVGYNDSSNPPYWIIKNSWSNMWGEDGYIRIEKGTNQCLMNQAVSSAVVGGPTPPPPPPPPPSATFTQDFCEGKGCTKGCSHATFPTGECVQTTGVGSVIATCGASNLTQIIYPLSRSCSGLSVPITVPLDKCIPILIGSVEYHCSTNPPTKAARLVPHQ
Method in brief: (§1)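 Recombinant enzymes assayed by Z-Phe-Arg-AMC cleavage at 25 °C, fluorescence 340/440 nm over 5–7 min, with 10 min or no enzyme–compound preincubation.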

cruzain = cruzain (Trypanosoma cruzi, UniProt P25779); test: biochemical; settings: for Cruzain 0’ Inhibition / Cruzain 10’ Inhibition: sheet "Screening results"
cruzain, sequence (P25779 123-337 limits assumed): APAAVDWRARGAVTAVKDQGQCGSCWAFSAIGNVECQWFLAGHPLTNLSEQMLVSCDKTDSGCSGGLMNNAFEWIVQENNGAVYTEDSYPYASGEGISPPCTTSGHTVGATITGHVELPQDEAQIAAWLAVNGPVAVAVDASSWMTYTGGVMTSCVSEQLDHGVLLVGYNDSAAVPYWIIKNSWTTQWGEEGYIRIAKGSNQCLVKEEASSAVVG
Method in brief: as §1

[1] = 0’ (no pre-incubation), sheet Screening results
[2] = 10’ (pre-incubation), sheet Screening results
[3] = 0’ (pre-incubation time), Pathogen Box screening results
[4] = 10’ (pre-incubation time), Pathogen Box screening results
[5] = 5 µM, PB library solutions, 10 min pre-incubation, vs DMSO control

Structure (SMILES)	TbrCatL 0’ Inhibition (TbrCatL; 0’ (pre-incubation time)) [%]	TbrCatL 10’ Inhibition (TbrCatL; 10’ (pre-incubation time)) [%]	Cruzain 0’ Inhibition (cruzain; 0’ (pre-incubation time)) [%]	Cruzain 10’ Inhibition (cruzain; 10’ (pre-incubation time)) [%]	TbrCatL Inhibition 0’ (TbrCatL; [1]) [%]	TbrCatL Inhibition 10’ (TbrCatL; [2]) [%]	Cruzain Inhibition 0’ (cruzain; [1]) [%]	Cruzain Inhibition 10’ (cruzain; [2]) [%]	other results
CC(C)(C)c1ccc(N[C@@H]2CCCC[C@H]2NC(=O)c2ccco2)cc1 [MMV675969]	-4.6	-6	-8	-5					
COc1ccc(-c2nn(C(C)C)c3ncnc(N)c23)cc1OC [MMV675993]	-7	-5.6	-7	-1.8					
Clc1ccc(-n2cc(COc3ccnc4ccccc34)nn2)cc1 [MMV675994]	-1.8	11	5	14					
COc1ccc(N(CCc2cccc(C)n2)C(C)=O)cc1 [MMV675995]	-3	19	2.8	1.9					
COc1ccc(N(CCc2cccc(C)n2)C(=O)C2CCCCC2)cc1 [MMV675996]	-13	-10	-3	-2.2					
N#CCN(CCCCN1CCN(c2ccc(F)cc2)CC1)C(=O)OCc1ccccc1 [MMV675997]					1.6	5	1.2	3.2	
COc1ccc(C(=N)N)cc1-c1cn(-c2ccc(C(=N)N)cc2)nn1 [MMV675998]	2	34	6	26					
O=C(Nc1c(O)cccc1-c1nc2c(C(=O)O)cccc2o1)c1cc(-c2ccccc2)on1 [MMV676008]	2.6	-3.7	-3.3	8					
Clc1ccc(Cl)c(CO[C@H]2CCCC[C@@H]2n2ccnc2)c1 [MMV676048]	0.8	-3.8	2.8	5.7					
CS(=O)(=O)N1CCC(Cn2nc(Cc3cccc4ccccc34)c3c(N)ncnc32)CC1 [MMV676050]	0.1	3	0.2	8					
COc1cc(NC(=O)Cc2nn(C)c(=O)c3ccccc23)ccc1Cl [MMV676053]	1.2	1.5	0	1.7					
CC(C)(C)OC(=O)N1CCN(c2cc(-c3ccc(Oc4ccccc4)cc3)n[nH]2)CC1 [MMV676057]	-2.3	-12	-1.5	-3.4					
CCCCc1ccc(NC(=O)Nc2ccc(O[C@H]3CCCC[C@@H]3N(C)c3ccccc3)c(F)c2)cc1 [MMV676063]	-17	-15	-13	-3.3					
CC(=O)N(CCN(C(=O)c1ccc(F)cc1)c1ccccc1)c1ccccc1 [MMV676064]	-5	-7	-6	3					
Clc1cccc(CO[C@H]2CCc3ccccc3[C@@H]2n2ccnn2)c1 [MMV676159]	-13	-6	-3	-1.8					
c1ccc(Oc2ccc(-c3cc(CN4CCOCC4)[nH]n3)cc2)cc1 [MMV676161]	-3	-2.5	-1.3	1.7					
O=C(Nc1ccccc1-c1nc2c(C(=O)O)cccc2o1)c1ccccc1 [MMV676162]	2.6	6	8	9					
Nc1ncnc2c1c(Cc1cccc3ccccc13)nn2CC1CCNCC1 [MMV676182]	1.4	3.4	-4.4	4.5					
COC(=O)c1cccc2oc(-c3cccc(OC)c3NC(=O)c3cc(-c4ccccc4)on3)nc12 [MMV676186]	-3.7	-5	-3.5	5.3					
CC(C)C(Oc1cccc2ccccc12)C(=O)O (stereo not shown) [MMV676191]	-3	2	2.8	1.5					
O=C(c1ccc(F)cc1)N(CCNc1ccccc1)c1ccccc1 [MMV676204]					2.6	-1.3	6	4.7	

Structure (SMILES)	TbrCatL 0’ Inhibition (TbrCatL; 0’ (pre-incubation time)) [%]	TbrCatL 10’ Inhibition (TbrCatL; 10’ (pre-incubation time)) [%]	Cruzain 0’ Inhibition (cruzain; 0’ (pre-incubation time)) [%]	Cruzain 10’ Inhibition (cruzain; 10’ (pre-incubation time)) [%]	TbrCatL Inhibition 0’ (TbrCatL; [1]) [%]	TbrCatL Inhibition 10’ (TbrCatL; [2]) [%]	Cruzain Inhibition 0’ (cruzain; [1]) [%]	Cruzain Inhibition 10’ (cruzain; [2]) [%]	other results
CN1CCN(c2nccc3nc(-c4ccc(F)c(F)c4)[nH]c23)CC1 [MMV676260]	0.7	5	-9	1.2					
C[C@H](C(N)=O)N1CCCC[C@H]1c1ccc(OCc2cccc(F)c2)cc1 [MMV676269]	-3	-4.7	0.4	2					
C[C@H](C(N)=O)N1CCCC[C@@H]1c1ccc(OCc2cccc(F)c2)cc1 [MMV676270]									TbrCatL Inhibition 0’ (TbrCatL; [3]): 3.2%; TbrCatL Inhibition 10’ (TbrCatL; [4]): -0.6%; Cruzain Inhibition 0’ (cruzain; [3]): 4.6%; Cruzain Inhibition 10’ (cruzain; [4]): 9%
Cc1c[nH]c(CCNC(=O)c2cc(-c3ccc(Cl)cc3)cs2)n1 [MMV676350]					28	28	17	22	
Nc1ncc(Br)cc1-c1nc2cc(Cl)cnc2[nH]1 [MMV676358]	-9	-2.5	-2.8	8					
Brc1c(-c2ccc3c(c2)OCO3)nc2ncccn12 [MMV676377]					5	-1.8	1.2	-0.9	
COc1cccc(OCC(=O)c2ccc(Br)cc2)c1 [MMV676379]					9	20	8	14	
CC(=O)Nc1ccc(NC(=O)c2cc(-c3cc(Cl)ccc3O)n[nH]2)cc1 [MMV676380]					-5	-3	0.6	-0.9	
Cn1ncc2c(N3CCOCC3)nc(NCCc3c[nH]c4ccccc34)nc21 [MMV676382]					4.7	7.5	17	15	
CCC(Sc1nc2ccccc2o1)C(=O)Nc1nccs1 (stereo not shown) [MMV676383]					10	7.5	3.5	4	
N#Cc1nc(-c2ccccc2F)oc1NCCc1ccccc1 [MMV676384]	3.4	7	7	6					
Cc1cccc(Cn2ccc(NC(=O)c3ccc4c(c3)OCO4)n2)c1 [MMV676386]					2.8	1.8	8	2.6	
COc1cccc(-n2nnnc2S(=O)(=O)Cc2ccccc2)c1 [MMV676388]					18	15	15	12	
O=C(c1n[nH]c2c1CCCC2)N1CCN(Cc2ccc3c(c2)OCO3)CC1 [MMV676389]					-12	-7	-6	-3.4	
O=C(Nc1cccnc1)c1c(O)c2cccc3c2n(c1=O)CC3 [MMV676395]					17	19	10	8	
CCS(=O)(=O)N(Cc1ccco1)Cc1cc2ccc(C)cc2[nH]c1=O [MMV676398]	8	9	6.5	28					
c1coc(CNc2nc(N3CCCCC3)nc3ccccc23)c1 [MMV676401]					6.5	15	4.6	9	
CC(C)n1ncc2c(C(=O)NCC(c3cccs3)N3CCOCC3)cc(-c3ccccc3)nc21 (stereo not shown) [MMV676406]					17	15	6	6	
O=C(COc1cccc(F)c1)Nc1nc(-c2ccccn2)cs1 [MMV676409]					-77		-227		Increase in the initial velocity of the reaction (%) 5 µM using PB samples TbrCatL (TbrCatL; [5]): 772 ± 382%; Increase in initial velocity of substrate cleavage in comparison to the DMSO control (TbrCatL; TbrCatL 10′ inc, screening at 5 µM): up to 8 fold; Increase in the initial velocity of the reaction (%) 5 µM using PB samples Cruzain (cruzain; [5]): 510 ± 216%; Increase in the initial velocity of the reaction (%) 5 µM using solid samples Cruzain (cruzain; 5 µM, solid samples, 10 min pre-incubation, vs DMSO control): -4 ± 2%; Increase in the initial velocity of the reaction (%) 100 µM using solid samples Cruzain (cruzain; 100 µM, solid samples, 10 min pre-incubation, vs DMSO control): 0 ± 6%; Increase in the enzyme velocity in confirmatory assays (cruzain; solid samples, varying compound concentrations): no increase in the enzyme velocity
CC(Oc1ccccc1)C(=O)Nc1nc(-c2ccccn2)cs1 (stereo not shown) [MMV676411]	-14	-0.8	-2.3	0.8					
N#Cc1nc(-c2ccccc2)oc1S(=O)(=O)c1ccc(Cl)cc1 [MMV676412]					5.5	-69	6	-27	
